Tests used:
L02 cells = experiment: MTT cytotoxicity; assay type: cell-based, human; details: 100 μM; 24h and 48h
Procedure: Normal human liver L02 cells were cultured in RPMI-1640 complete medium and maintained in a humidified incubator at 37°C with 5% CO2. Cell status was observed daily, and the medium was changed every 1–2 days. During the experiment, cells in good condition and in the logarithmic growth phase were selected. After digestion and collection, the cells were evenly suspended, and the cell suspension concentration was adjusted to 5×10^4 cells/mL. A volume of 150 μL was inoculated per well in a 96-well plate, leaving the surrounding wells for the addition of sterilized PBS (100 μL per well) to prevent edge effects. The plate was then placed in an incubator for further incubation. After 12 h of culturing to allow cell adhesion, the culture medium was aspirated from the 96-well plate. Based on the control, QO-83 was added at concentrations of 0.1 μM, 0.3 μM, 1 μM, 3 μM, 10 μM, 30 μM, and 100 μM, along with Flupirtine (100 μM) in a concentration gradient of 150 μL per well, with six replicates for each group. The control group served as the normal control. The cultures were incubated for 24 and 48 h, respectively. After this period, the culture medium was removed, and 50 μL of 5 mg/mL MTT solution was added to each well, followed by continued incubation for 4 h. […] Finally, the absorbance was measured using a microplate reader (preheated for at least 15 min) at a wavelength of 490 nm.

liver tissue = experiment: Liver toxicity, 28 days gavage; assay type: in vivo, KM mice; details: for liver-body weight ratio compared to control: QO-83 20, Flupirtine 20, APAP 200 mg/kg/d
Procedure: Twenty-four KM mice, half male and half female, weighing between 18 and 22 g, were randomly divided into four groups, each consisting of six mice: a control group, an acetaminophen (APAP) group, a flupirtine (FM) group, and a QO-83 group. The treatment lasted for 28 days, and the drug solvent was a 0.8% sodium carboxymethyl cellulose solution. The control group received an equal amount of 0.8% sodium carboxymethyl cellulose solution. A single dose was administered to each group via gavage, and the dosage volume was calculated based on the body weight of the mice. The control group received 0.8% sodium carboxymethyl cellulose solution, the APAP group received acetaminophen at 200 mg/kg/d, the FM group received […] at 20 mg/kg/d, and the QO-83 group received QO-83 at 20 mg/kg/d. After 28 days of administration, the liver was isolated, fixed in 4% paraformaldehyde for at least 24 h, routinely embedded in paraffin, and sectioned into 3–5 μm continuous slices. Hematoxylin-eosin (HE) staining was performed to observe the pathological structure of the tissue. After staining with HE, the tissue was dehydrated using an alcohol gradient, cleared, and mounted for the observation of liver lesions under a light microscope.

[1] = tested on: pilocarpine-induced seizures; experiment: Pilocarpine-induced status epilepticus model with EEG; assay type: in vivo, Sprague–Dawley (SD) rats
Excerpt: For animal experiments, we used adult male Sprague–Dawley (SD) rats weighing between 240 and 260 g. Isoflurane anesthesia was used for all operations. Rats were secured in a stereotaxic frame, and the anterior fontanelle was marked 3 mm posteriorly. Additionally, marks were made approximately 3 mm lateral to the midline on both sides to indicate the insertion points for the positive and negative electrodes. A ground electrode was placed subcutaneously in the occipital lobe to eliminate recording noise. Postoperatively, each animal was housed separately in a single cage and provided food and water ad libitum. After a 3‐day adaptation period, electroencephalograms (EEG) were recorded.
The experimental procedure commenced with an intraperitoneal injection of lithium chloride (127 mg/kg). After 24 h, subcutaneous scopolamine methyl nitrate (1 mg/kg) was administered. […] Twenty minutes later, status epilepticus (SE) was induced by administering pilocarpine (100 mg/kg, i.p.). SE was terminated 2 h later by administering 10% chloral hydrate.
The Pilo group, 2 mg/kg XE991 group, and 2 mg/kg XE991 + 1 mg/kg QO‐83 group received an intraperitoneal injection of lithium chloride (127 mg/kg) 24 h prior to testing. Following this, scopolamine methyl nitrate (1 mg/kg) was administered […], and after 10 min, each group was treated with 25% beta‐cyclodextrin, 2 mg/kg XE991, or 2 mg/kg XE991, respectively. After 15 min, 25% beta‐cyclodextrin, 25% beta‐cyclodextrin, or 1 mg/kg QO‐83 was administered. Finally, 25 min later, pilocarpine (100 mg/kg, i.p.) was administered to induce seizures.
Seizure severity was assessed using a standardized scale ranging from 1 to 5, adapted from previous research criteria. Stage 1 encompasses mouth and facial movements, including wet dog shakes. Stage 2 involves head nodding. Stage 3 is characterized by unilateral forelimb clonus. […] Finally, stage 5 manifests as clonus of all limbs accompanied by falling.

KV7.2 = target: T1, KV7.2 (Homo sapiens, UniProt O43526); experiment: Manual patch clamp, KV7 currents; assay type: cell-based; details: 20 μM XE991
T1 construct: expressed in transfected cells
Procedure: Pipettes (1–6 MΩ) were filled with a solution of KCl (145 mM), MgCl2 (1 mM), HEPES (10 mM), and EDTA (5 mM). The pH was adjusted to 7.2 with NaOH. Electrophysiological measurements were obtained using an AXON Multiclamp 700 B patch‐clamp amplifier. The bath solution contained NaCl (144 mM), KCl (5 mM), MgCl2 (1 mM), CaCl2 (2 mM), and D‐glucose (10 mM), with the pH adjusted to 7.4 using NaOH. The protocol involved an increase in voltage from −120 mV to 40 mV in increments of 10 mV to evoke a series of KV7 currents (1000 ms per pulse) in the bath solution. For details on cell culture, please see Appendix S1 2.2.1.
Statistical differences between multiple groups (mean ± SEM) were compared using one‐ or two‐way ANOVA. Electrophysiological data were analyzed using SPSS version 21 and OriginPro (version 9.1.0). P Peak inward currents obtained from activation protocols were calculated using the following equation: G = I/(Vm‐EK), where G is conductance, I is peak inward current, Vm is instantaneous membrane potential, and EK is equilibrium potential for the […] channel. Conductance data were normalized using maximum conductance and further fitted to the Boltzmann equation: G=Gmax+Gmin−Gmax/1+expVm−V1/2/k , where G is conductance, V1/2 is midpoint of activation, and k is slope factor. The “Spectrum” module of LabChart was used for data analysis of EEG signals, including the calculation of power density and averaging power spectral density (PSD).
Stable Chinese Hamster Ovary (CHO) cell lines expressing specific Kv7 channel subtypes, including KV7.2 and KV7.2/7.3, were cultured in Minimum Essential Medium (MEM) supplemented with 10% fetal calf serum, 1× nonessential amino acids, […], and […] hygromycin B. Concurrently, KV7.4 and KV7.5 channels were stably expressed in Human Embryonic Kidney 293A (HEK293A) cell lines and nurtured in Dulbecco's Modified Eagle Medium (DMEM) high glucose medium supplemented with 10% fetal bovine serum (FBS), […], and […] hygromycin B.

| Structure (SMILES) | effect on cell viability (MTT) (L02 cells) | liver-body weight ratio compared to control (liver tissue) | effect on EEG power density (0–50 Hz and δ, θ, α, β bands) ([1]; 2 mg/kg XE991, compared to PILO group) | seizure grade versus model group ([1]; 2 mg/kg XE991 alone) | seizure latency ([1]; 2 mg/kg XE991 alone, Pilo model 22.73 ± 6.03 min) | effect on QO-83-induced increase in KV7.2 channel current (KV7.2) | liver tissue pathology (HE staining) (liver tissue; QO-83 20 mg/kg/d, APAP 200 mg/kg/d) |
| --- | --- | --- | --- | --- | --- | --- | --- |
| CCOC(=O)Nc1ccc(NCc2ccc(F)cc2)nc1N [Flupirtine] | significantly inhibited cell viability | increased significantly | – | – | – | – | – |
| O=C1c2ccccc2C(Cc2ccncc2)(Cc2ccncc2)c2ccccc21 [XE991] | – | – | significantly increased the power density | No significant differences | 8.52 ± 4.73 min | significantly inhibited the increase in KV7.2 channel current | – |
| CC(=O)Nc1ccc(O)cc1 [APAP, Acetaminophen] | – | increased significantly | – | – | – | – | significant pathological changes |

From article PMC11931445, “A Novel Compound QO‐83 Alleviates Acute and Chronic Epileptic Seizures in Rodents by Modulating KV7 Channel Activity” (CNS Neuroscience & Therapeutics, 2025)
